Test results: PubChem BioAssay AID2038 (NMMLSC, 2009)
Activity calls are given as the source filed them. The rule behind the calls is not given here.

Target: GTPase HRas (Homo sapiens) (UniProt P01112)
Assay: wildtype Ras GTP binding inhibitors, SAR follow-up, biochemical, additional analogs, multiplex flow cytometry, Ki (AID 2038)
Settings: Multiplex bead flow cytometry, fluorescent GTP binding; for Ki: measured here: Ki from EC50

GTPase HRas (Homo sapiens), sequence (P01112 whole entry, looked up): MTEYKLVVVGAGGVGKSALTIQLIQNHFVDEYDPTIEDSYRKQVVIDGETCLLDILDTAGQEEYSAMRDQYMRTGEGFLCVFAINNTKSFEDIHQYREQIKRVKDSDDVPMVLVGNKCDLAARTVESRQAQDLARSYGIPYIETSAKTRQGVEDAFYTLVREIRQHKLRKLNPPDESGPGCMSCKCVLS

| Compound | EC50 | Ki |
| --- | --- | --- |
| O=C1C(c2c(O)[nH]c3c(Br)cccc23)=Nc2ccccc21 | > 30 µM (inactive) | – |
| COc1ccc2cc([C@@H](C)C(=O)O)ccc2c1 | – | 0.49 µM |
| O=C1C(c2c(O)[nH]c3c(F)cccc23)=Nc2ccccc21 | > 30 µM (inactive) | – |
| O=C1C(c2c(O)[nH]c3ccc(Br)cc23)=Nc2ccccc21 | > 30 µM (inactive) | – |
| O=Nc1c(-c2c(O)[nH]c3ccccc23)[nH]c2ccccc12 | > 30 µM (inactive) | – |
| O=C1N=c2ccccc2=C1c1[nH]c(=O)[nH]c1O | > 30 µM (inactive) | – |
| O=Nc1c(-c2c(O)[nH]c3ccc(Br)cc23)[nH]c2ccccc12 | > 30 µM (inactive) | – |
| COc1ccc2cc([C@H](C)C(=O)O)ccc2c1 | > 30 µM (inactive) | – |
| O=C1C(c2c(O)[nH]c3ccccc23)=Nc2ccccc21 | > 30 µM (inactive) | – |
| O=C1C(c2c(O)[nH]c3c(Cl)cccc23)=Nc2ccccc21 | > 30 µM (inactive) | – |
| O=C1N=c2ccccc2=C1c1[nH]c(=S)[nH]c1O | > 30 µM (inactive) | – |
| O=Nc1c(-c2c(O)[nH]c3c(F)cccc23)[nH]c2ccccc12 | > 30 µM (inactive) | – |
| O=Nc1c(-c2c(O)[nH]c3c(Cl)cccc23)[nH]c2ccccc12 | > 30 µM (inactive) | – |
| O=Nc1c(-c2c(O)[nH]c3c(Br)cccc23)[nH]c2ccccc12 | > 37.5 µM (inactive) | 5.85 µM |
| O=C(C#Cc1ccccc1)c1ccc(F)cc1 | – | 4.84 µM |
